Like-named read-outs stand apart in the source and are kept apart here.
Biological target: T1, AR in LNCaP cytosol (Homo sapiens, UniProt P10275, T878A)
T1 construct: endogenous in cells; host or cells: LNCaP cytosol
T1 sequence (P10275 1-920 T878A): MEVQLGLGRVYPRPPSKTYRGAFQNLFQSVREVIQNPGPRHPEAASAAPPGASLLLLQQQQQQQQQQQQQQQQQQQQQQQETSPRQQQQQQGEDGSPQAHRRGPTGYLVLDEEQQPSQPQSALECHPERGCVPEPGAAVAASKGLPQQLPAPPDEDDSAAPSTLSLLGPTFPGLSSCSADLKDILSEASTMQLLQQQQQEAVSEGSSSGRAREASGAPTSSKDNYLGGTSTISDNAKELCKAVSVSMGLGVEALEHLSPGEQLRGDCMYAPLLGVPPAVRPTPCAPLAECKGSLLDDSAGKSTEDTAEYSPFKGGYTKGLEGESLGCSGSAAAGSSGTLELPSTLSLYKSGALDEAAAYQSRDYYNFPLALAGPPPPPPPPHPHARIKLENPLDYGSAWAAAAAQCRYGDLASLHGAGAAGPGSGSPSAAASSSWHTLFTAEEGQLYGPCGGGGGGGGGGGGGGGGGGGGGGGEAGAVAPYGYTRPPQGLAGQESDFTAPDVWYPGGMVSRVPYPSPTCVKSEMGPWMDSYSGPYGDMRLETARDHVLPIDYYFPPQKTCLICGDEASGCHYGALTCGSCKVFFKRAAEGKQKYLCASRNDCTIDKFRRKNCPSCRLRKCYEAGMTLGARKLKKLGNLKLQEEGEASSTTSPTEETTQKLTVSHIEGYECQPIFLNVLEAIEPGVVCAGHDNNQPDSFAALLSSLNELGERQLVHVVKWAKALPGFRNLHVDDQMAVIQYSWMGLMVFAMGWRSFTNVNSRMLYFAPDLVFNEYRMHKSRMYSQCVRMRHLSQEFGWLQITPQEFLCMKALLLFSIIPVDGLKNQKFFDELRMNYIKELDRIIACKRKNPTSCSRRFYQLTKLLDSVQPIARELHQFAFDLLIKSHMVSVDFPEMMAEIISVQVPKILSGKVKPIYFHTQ
Assay: AR binding assay (3H-methyltrienolone displacement)
Procedure: The following methods are for evaluating the in vitro biology properties of the test articles. • a. RBC HotSpot Poly(ADP-ribose) Polymerases 1 (PARP1) and Poly(ADP-ribose) Polymerases 2 (PARP2) Assays: The assay principle is radioisotope-based filter binding assay where incorporation of radioisotope-labeled NAD^+ into the substrate captured on filter is detected after washout free NAD^+. Data were analyzed using Excel and GraphPad Prism software for IC50 curve fits. Each assay was conducted with PJ34 as a positive control. • i. PARP1 assay: Human recombinant PARP1 at a final concentration of 2.5 nM was combined with histone H4 (20 μM) and test articles at various concentrations in reaction buffer (50 mM Tris-HCL, pH 8.0, 50 mM NaCl, 10 mM MgCl2, 1 mM DTT, 1% DMSO, and 20 μg/mL activated DNA). The solution was inoculated for 20 min at room temperature and the reaction initiated by adding [adenylate-^32P]-Nicotinamide Adenine Dinucleotide, ^32P-NAD^+ at a final concentration of 10 μM. After incubation for 2 hour at room temperature, the reaction mixture was filtered and washed with 0.75% phosphoric acid for radioactivity detection. • ii. PARP2 assay: Human recombinant PARP2 at a final concentration of 2.5 nM was combined with histone H3 (20 μM) and test articles at various concentrations in reaction buffer (50 mM Tris-HCL, pH 8.0, 50 mM NaCl, 10 mM MgCl2, 1 mM DTT, 1% DMSO, and 20 μg/mL activated DNA). The solution was inoculated for 20 min at room temperature and the reaction was initiated by adding [adenylate-^32P]-Nicotinamide Adenine Dinucleotide, ^32P-NAD^+ at a final concentration of 10 μM. After incubation for 2 hour at room temperature, the reaction mixture was filtered and washed with 0.75% phosphoric acid for radioactivity detection. • b. AR binding assay: AR in LNCaP cytosol was used for determining the binding affinity of test articles and the reference compound—progesterone (Sigma, Cat: E2785, St. Louis, MO). IC50s were determined using 8 concentrations/compound. Cytosol was plated at 200 μg/well (100 μL) into a 96-well conical polypropylene plate (Agilent, Cat: 5042-1385, Santa Clara, CA) and mixed with 3 μL of test compound. After adding 100 μL of ^3H-methyltrienolone (PerkinElmer, Cat: NET590250UC, San Jose, CA), the plate was sealed and shaken at 300 rpm at 4° C. for 24 hours. Post incubation, 100 μL of radioligand adsorption buffer containing 10 mM Tris-HCl, pH 7.4; 1.5 mM EDTA; 1 mM DTT; 0.25% charcoal; 0.0025% dextran was added to individual well. Plate was shaken for 15 min at 4′C followed by centrifugation at 3000 rpm for 30 min at 4° C. 150 μL of supernatant was transferred into scint-tube (PerkinElmer, Cat: 6000192) and mixed with 2 mL of Ultima Gold Cocktail (PerkinElmer, Cat: 6013329). Radioactivity was counted using a TriCarb 2910 TR scintillation counter (PerkinElmer). Inhibition of the radioactivity by test articles were calculated using the equation below: % Inhibition=(1−(Assay well−Average_LC)/(Average_HC−Average_LC))×100%.
IC50 values were calculated and graphed using the model “log(inhibitor) vs. response—Variable slope” included in GraphPad Prism 5 (San Diego, CA). The Ki values were further calculated using the equation below where [L] was the radioligand concentration (1 nM) using in this study. Kd value was 0.332 nM. Ki=IC50/(1+[L]/Kd) c. AR transactivation: Human AR cloned into a CMV vector backbone was used for the transactivation study. HEK-293 cells were plated at 80,000 cells per well of a 24 well plate in DME+5% csFBS. Twenty four hours later, the cells were transfected using Lipofectamine (Invitrogen, Carlsbad, CA) with 0.25 μg GRE-LUC, 0.01 μg CMV-LUC (renilla luciferase) and 25 ng of the AR in OPTIMEM medium. The cells were treated 24 hrs after transfection with various ligands (10^−12 to 10^−5 M final concentrations) and luciferase assay were performed 48 hours after transfection. […]

| SMILES | Ki [nM] | Ki (Ki=IC50/(1+[L]/Kd), [L] 1 nM, Kd 0.332 nM, read-out: AR Ki) [nM] |
| --- | --- | --- |
| C[C@]12CCC(=O)C[C@@H]1CC[C@@H]1[C@@H]2CC[C@]2(C)[C@@H](OCCCCCC(=O)N3CCN(C(=O)c4cc(Cc5n[nH]c(=O)c6ccccc56)ccc4F)CC3)CC[C@@H]12 [Compound 1.2, 4-(3-(4-(6-(((5S,8R,9S,10S,13S,14S,17S)-10,13-dimethyl-3-oxohexadecahydro-1H-cyclopenta[a]phenanthren-17-yl)oxy)hexanoyl)piperazine-1-carbonyl)-4-fluorobenzyl)phthalazin-1(2H)-one] | 1.31 | – |
| C[C@]12CCC(=O)C[C@@H]1CC[C@@H]1[C@@H]2CC[C@]2(C)[C@@H](OCC(=O)N3CCN(C(=O)c4cc(Cc5n[nH]c(=O)c6ccccc56)ccc4F)CC3)CC[C@@H]12 [Compound 1.110, 4-(3-(4-(2-((5S,8R,9S,10S,13S,14S,17S)-10,13-dimethyl-3-oxohexadecahydro-1H-cyclopenta[a]phenanthren-17-yloxy)acetyl)piperazine-1-carbonyl)-4-fluorobenzyl)phthalazin-1(2H)-one] | 60 | – |
| C[C@]12CCC(=O)C[C@@H]1CC[C@@H]1[C@@H]2CC[C@]2(C)[C@@H](OCCOCC(=O)N3CCN(C(=O)c4cc(Cc5n[nH]c(=O)c6ccccc56)ccc4F)CC3)CC[C@@H]12 [Compound 1.104, 4-(3-(4-(2-(2-((5S,8R,9S,10S,13S,14S,17S)-10,13-dimethyl-3-oxohexadeca hydro-1H-cyclopenta[a]phenanthren-17-yloxy)ethoxy)acetyl)piperazine-1-carbonyl)-4-fluorobenzyl)phthalazin-1(2H)-one] | – | 167 |
| C[C@]12CCC(F)(F)C[C@@H]1CC[C@@H]1[C@@H]2CC[C@]2(C)[C@@H](OCCCCCC(=O)N3CCN(C(=O)c4cc(Cc5n[nH]c(=O)c6ccccc56)ccc4F)CC3)CC[C@@H]12 [Compound 1.114, 4-(3-(4-(6-((5S,8R,9S,10S,13S,14S,17S)-3,3-difluoro-10,13-dimethylhexadecahydro-1H-cyclopenta[a]phenanthren-17-yloxy)hexanoyl)piperazine-1-carbonyl)-4-fluorobenzyl)phthalazin-1(2H)-one] | 19 | – |
| C[C@](O)(COc1ccc(NCCCCCC(=O)N2CCN(C(=O)c3cc(Cc4n[nH]c(=O)c5ccccc45)ccc3F)CC2)cc1)C(=O)Nc1ccc(C#N)c(C(F)(F)F)c1 [Compound 1.83, (S)-N-(4-cyano-3-(trifluoromethyl)phenyl)-3-(4-(6-(4-(2-fluoro-5-((4-oxo-3,4-dihydrophthalazin-1-yl)methyl)benzoyl)piperazin-1-yl)-6-oxohexylamino)phenoxy)-2-hydroxy-2-methylpropanamide] | 139 | – |

From patent publication US12398121B2 (Nuvation Bio Inc., priority 2018, dated 2025)
